How the values were obtained:
E. coli = experiment: Broth microdilution MIC (CLSI, Micromyx), E. coli; format: cell-based; conditions: Escherichia coli
Method: (§1) The antibacterial activity of defensin mimetics against Staphylococcus aureus ATCC 29213 and Escherichia coli 25922 was carried out in a 96-well turbidimetric assay essentially as described (Ericksen, B., Wu, Z., Lu, W., and Lehrer, R. I. (2005) Antimicrob Agents Chemother 49, 269-275) with the following modifications: compounds were exposed for 30 min to […] prior to addition of […] in 10 mM phosphate buffer containing 5% DMSO. Bacterial growth was monitored for 12 hours and data were analyzed as described (Ericksen, et al). Determination of MICs was performed by Micromyx, LLC (Kalamazoo, Mich.) according to CLSI standards (CLSI. (2009) Methods for Dilution Antimicrobial Susceptibility Tests for Bacteria That Grow Aerobically; Approved Standard—Eighth Edition.)
To confirm the antibacterial killing assays, Minimal Inhibitory Concentrations (MICs, μg/ml) were determined for lead compounds against clinically relevant bacterial strains (Table 3, FIG. 11). […] Experiments were carried out according to CLSI standards (CLSI. (2009) Methods for Dilution Antimicrobial Susceptibility Tests for Bacteria That Grow Aerobically; Approved Standard—Eighth Edition.) by Micromyx, LLC (Kalamazoo, Mich.). […] There was no significant difference for any compound when evaluated against clinically relevant strains (e.g. MRSA, VRE, PRSP).

[1] = Surface Plasmon Resonance binding to immobilized 3-Lipid II (BIAcore); conditions: defensin mimetics at 10 μM, immobilized 3-Lipid II, 25° C.
Method: Short-chain water-soluble Lipid II containing a lipid tail of three isoprene units was generated and purified essentially as described (Breukink, E., van Heusden, H. E., Vollmerhaus, P. J., Swiezewska, E., Brunner, L., Walker, S., Heck, A. J., and de Kruijff, B. (2003) J Biol Chem 278, 19898-19903). Typically, M. flavus vesicles (120 μmol lipid-Pi) were incubated together with 500 μmol UDP-GlcNAc, 500 μmol UDP-MurNAC-pentapeptide and 400 μmol farnesyl phosphate (3-P) in 100 mM Tris-HCl pH 8.0, 5 mM MgCl2. The incubation lasted two hours at room temperature for 3-P. The synthesis of 3-Lipid II was followed using RP-8 reversed phase TLC (Merck) developed in 75% methanol. For purification, the membranes were removed by centrifugation at 40,000×g and the supernatant was collected and loaded on a C18 HPLC column and eluted with a linear gradient from 50 mM ammonium bicarbonate to 100% methanol in 30 minutes. Farnesyl-Lipid II (3-Lipid II) eluted at approximately 60% methanol. Its identity was confirmed by mass spectroscopy.
Surface Plasmon Resonance binding experiments were carried out on a BIAcore T100 system (BIAcore Inc., Piscataway, N.Y.) at 25° C. The assay buffer was 10 mM HEPES, 150 mM NaCl, 0.05% surfactant P20, pH 7.4 (±3 mM EDTA) supplemented with 10% DMSO. […] For initial determination of binding, defensin mimetics were introduced into the flow-cells (30 μl/min) in the running buffer at 10 μM. Resonance signals were corrected for nonspecific binding by subtracting the background of the control flow-cell. After each analysis, the sensor chip surfaces were regenerated with 50 mM NaOH for 30 s at a flow rate 100 μl/min, and equilibrated with the buffer prior to next injection. For binding kinetics studies, binding isotherms were analyzed with manufacturer-supplied software for BIAcore T100.

[2] = system: Escherichia coli ATCC 25922; experiment: 96-well turbidimetric antibacterial killing assay, E. coli; format: cell-based; conditions: E. coli
Method: as §1
The inventors have previously reported on the antibacterial activity of HNP1 and all of its structurally uncompromised single alanine mutants against S. aureus (Wei, G., Pazgier, M., de Leeuw, E., Rajabi, M., Li, J., Zou, G., Jung, G., Yuan, W., Lu, W. Y., Lehrer, R. I., and Lu, W. J Biol Chem 285, 16275-16285). […] If these residues are indeed important for Lipid II binding, one would expect that replacement by alanine will not affect killing of Gram-negative bacteria. […] In particular, FIG. 12 depicts killing of E. coli by HNP-1 Lipid II single alanine mutants. Survival curves of E. coli ATCC 25922 exposed to HNP-1 or HNP-1 single alanine mutants at concentrations varying two-fold from […]. Bacteria were exposed to defensin peptides for 120 min. Each curve is the mean of two separate experiments (±S.D.). Points scored as zero survival could not be plotted.

S. aureus ATCC 29213 = experiment: Murine peritoneal sepsis model; format: in vivo, C57BL/6J mice
Method: Adult C57BL/6J mice (˜18 grams, 8-10 weeks old) were used for all experiments. Mice were obtained from the Jackson Laboratory (Bar Harbour, Me., USA) and housed in the IHV SPC animal core facility. Mice were fed standard chow (Harlan Laboratories) and water ad libitum. To assess the protective potency of defensin mimetic BAS00127538, groups of 5 mice were inoculated intraperitoneally ˜10^7 CFU/mL of S. aureus ATCC 29213 in 500 μL saline solution/25% DMSO plus 4.5% (w/v) porcine gastric mucin (Sigma Chemical Co., St Louis, Mo.). Infected animals (n=5) were subsequently treated by intra-peritoneal injection 1 and 4 hours post-infection with 2.5 mg/kg of compound in 100 μL sterile saline solution plus 25% DMSO (V/V), vancomycin/lysostaphin (5 mg/kg, saline solution/25% DMSO) or vehicle (saline solution/25% DMSO) as positive and negative controls respectively. Animals were closely observed during a period of 24 hours and mice that show signs of severe sepsis were humanely euthanized. Blood samples were collected by retro-orbital puncture at the indicated intervals post-infection using lithium-heparin polystyrene tubes to prevent coagulation. Spleens were harvested aseptically, weighed and homogenized in 500 μl of sterile saline solution using an IKA T10 basic disperser (IKA, Wilmington N.C.). Whole blood samples and spleen homogenates were serially diluted and plated onto LB agar plates. Bacterial counts were determined following 24 h incubation at 37° C. and expressed as CFU per milliliter for blood and CFU per gram for spleen.
Next, a murine model for sepsis was established to evaluate the efficacy of the lead defensin mimetics as antibiotic agents in vivo. […] Mice (n=5) were inoculated intraperitoneally with S. aureus 29213 and treated 1 h and 4 h post-infection with compound BAS00127538 at 2.5 mg/kg intraperitoneally Animals were monitored for survival and blood and spleen samples were collected. Bacterial counts were determined and compared to control treatment with vancomycin/lysostaphin as measures of efficacy (FIG. 6).

[3] = system: Staphylococcus aureus ATCC 29213; experiment: 96-well turbidimetric antibacterial killing assay, S. aureus; format: cell-based
Method: as §1

CN1/C(=C/C=C/c2cc(-c3ccccc3)cc(-c3ccccc3)[o+]2)C(C)(C)c2ccccc21 [BAS00127538, 2,4-diphenyl-6-[(1E)-3-[(2E)-1,3,3-trimethyl-2,3-dihydro-1H-indol-2-ylidene]prop-1-en-1-yl]-1$1^4-pyran-1-ylium]
MIC (E. coli): 4 µg/mL
Binding to Lipid II as measured by SPR [1]: most strongly bound
Concentration at which compound was 100% bactericidal against E. coli [2]: 7.8 µM
Bacterial counts in spleen and blood (S. aureus ATCC 29213; 2.5 mg/kg intraperitoneally 1 h and 4 h post-infection): significantly reduced
Survival of animals (S. aureus ATCC 29213; 2.5 mg/kg intraperitoneally 1 h and 4 h post-infection, n=5 mice): 4 out of five
Efficacy in vivo in a murine model for sepsis (S. aureus ATCC 29213; mouse, in vivo): proven effective
Concentration at which compound was 100% bactericidal against S. aureus [3]: 0.244 µM
